How the values were obtained:
[1] = molecular target: T1, C-X-C chemokine receptor type 1 (Homo sapiens, UniProt P25024); further: in other assays of this panel Not Active means under 50% inhibition at 10 µM
T1 sequence (P25024 whole entry): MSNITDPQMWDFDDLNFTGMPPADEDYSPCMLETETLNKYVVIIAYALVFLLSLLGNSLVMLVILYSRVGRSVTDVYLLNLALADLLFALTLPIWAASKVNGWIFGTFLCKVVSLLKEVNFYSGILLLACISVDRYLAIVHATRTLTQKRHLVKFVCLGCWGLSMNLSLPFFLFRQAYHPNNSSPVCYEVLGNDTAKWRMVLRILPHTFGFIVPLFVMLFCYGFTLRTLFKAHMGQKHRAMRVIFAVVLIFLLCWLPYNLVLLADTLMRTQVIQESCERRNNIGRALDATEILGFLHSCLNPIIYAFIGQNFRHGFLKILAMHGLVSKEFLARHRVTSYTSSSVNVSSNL

[2] = molecular target: Mu-type opioid receptor (Homo sapiens, UniProt P35372); experiment: DRUGMATRIX: Opiate mu (OP3, MOP) radioligand binding (ligand: [3H] Diprenorphine); format: cell membranes, CHO-K1, Membrane; details: cho-k1; Not Active = under 50% inhibition at 10 µM
[3] = molecular target: Insulin receptor (Rattus norvegicus, UniProt P15127); format: cell membranes, Wistar, Liver, Membrane; further: in other assays of this panel Not Active means under 50% inhibition at 10 µM
[4] = DRUGMATRIX: Atrial Natriuretic Factor (ANF) radioligand binding (ligand: [125I] ANF (rat)); format: cell membranes, Cavia porcellus, Dunkin-Hartley, Adrenal gland, Membrane; details: Not Active = under 50% inhibition at 10 µM
[5] = molecular target: T2, Muscarinic acetylcholine receptor M2 (Homo sapiens, UniProt P08172); format: cell membranes, CHO-K1, Membrane; details: cho-k1; further: in other assays of this panel Not Active means under 50% inhibition at 10 µM
T2 sequence (P08172 whole entry): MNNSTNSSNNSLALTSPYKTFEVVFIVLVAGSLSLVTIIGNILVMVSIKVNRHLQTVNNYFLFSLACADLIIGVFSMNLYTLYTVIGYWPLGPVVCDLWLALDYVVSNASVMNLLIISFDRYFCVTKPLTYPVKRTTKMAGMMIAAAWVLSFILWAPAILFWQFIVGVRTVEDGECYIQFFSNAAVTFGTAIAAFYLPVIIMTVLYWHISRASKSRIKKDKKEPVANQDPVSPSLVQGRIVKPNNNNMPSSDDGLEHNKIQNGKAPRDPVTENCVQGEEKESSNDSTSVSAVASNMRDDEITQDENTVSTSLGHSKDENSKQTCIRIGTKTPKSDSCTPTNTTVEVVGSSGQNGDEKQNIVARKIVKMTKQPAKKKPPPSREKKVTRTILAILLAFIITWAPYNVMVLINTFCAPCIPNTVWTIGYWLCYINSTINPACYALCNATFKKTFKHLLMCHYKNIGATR

[6] = molecular target: T3, B2 bradykinin receptor (Homo sapiens, UniProt P30411); format: cell membranes, Membrane; details: chem-1; further: in other assays of this panel Not Active means under 50% inhibition at 10 µM
T3 sequence (P30411 whole entry): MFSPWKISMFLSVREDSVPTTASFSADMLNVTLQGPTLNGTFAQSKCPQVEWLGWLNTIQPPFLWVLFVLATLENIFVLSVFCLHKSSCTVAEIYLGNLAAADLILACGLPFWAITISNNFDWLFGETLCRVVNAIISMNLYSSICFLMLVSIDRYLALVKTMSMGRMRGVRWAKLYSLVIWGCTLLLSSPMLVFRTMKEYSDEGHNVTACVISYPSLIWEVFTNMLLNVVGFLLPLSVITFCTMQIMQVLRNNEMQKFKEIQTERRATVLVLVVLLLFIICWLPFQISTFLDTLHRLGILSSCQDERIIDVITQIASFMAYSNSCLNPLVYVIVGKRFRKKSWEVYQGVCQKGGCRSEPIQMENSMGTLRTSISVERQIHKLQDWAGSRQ

[7] = DRUGMATRIX: Serotonin (5-Hydroxytryptamine) 5-HT3 radioligand binding (ligand: [3H] GR-65630); format: cell membranes, Membrane; details: hek293; Not Active = under 50% inhibition at 10 µM
[8] = DRUGMATRIX: ATPase, Na+/K+ enzyme inhibition (substrate: ATP); format: tissue-based, Sus scrofa, Heart; details: Not Active = under 50% inhibition at 10 µM

Sequence of Insulin receptor (P15127 27-759 limits assumed): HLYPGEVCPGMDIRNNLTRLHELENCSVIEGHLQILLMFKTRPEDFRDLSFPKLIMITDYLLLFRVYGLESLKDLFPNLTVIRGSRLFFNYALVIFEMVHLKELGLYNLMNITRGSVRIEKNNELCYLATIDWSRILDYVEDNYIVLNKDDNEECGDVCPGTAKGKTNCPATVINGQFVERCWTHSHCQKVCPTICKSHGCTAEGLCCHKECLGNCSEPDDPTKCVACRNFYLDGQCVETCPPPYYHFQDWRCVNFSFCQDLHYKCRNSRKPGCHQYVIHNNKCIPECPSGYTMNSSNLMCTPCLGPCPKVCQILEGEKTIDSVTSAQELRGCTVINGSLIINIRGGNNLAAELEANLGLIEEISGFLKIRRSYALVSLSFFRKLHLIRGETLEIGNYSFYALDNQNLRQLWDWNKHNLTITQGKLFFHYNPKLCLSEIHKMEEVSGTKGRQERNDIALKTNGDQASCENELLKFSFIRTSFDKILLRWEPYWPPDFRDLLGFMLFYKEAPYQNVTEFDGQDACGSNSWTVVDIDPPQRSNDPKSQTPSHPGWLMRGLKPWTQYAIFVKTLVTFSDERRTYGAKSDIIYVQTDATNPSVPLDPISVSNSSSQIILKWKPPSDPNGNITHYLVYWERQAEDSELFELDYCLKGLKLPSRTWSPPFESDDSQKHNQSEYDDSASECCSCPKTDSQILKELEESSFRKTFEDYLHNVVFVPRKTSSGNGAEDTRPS
Sequence of Insulin receptor (P15127 764-1383 limits assumed): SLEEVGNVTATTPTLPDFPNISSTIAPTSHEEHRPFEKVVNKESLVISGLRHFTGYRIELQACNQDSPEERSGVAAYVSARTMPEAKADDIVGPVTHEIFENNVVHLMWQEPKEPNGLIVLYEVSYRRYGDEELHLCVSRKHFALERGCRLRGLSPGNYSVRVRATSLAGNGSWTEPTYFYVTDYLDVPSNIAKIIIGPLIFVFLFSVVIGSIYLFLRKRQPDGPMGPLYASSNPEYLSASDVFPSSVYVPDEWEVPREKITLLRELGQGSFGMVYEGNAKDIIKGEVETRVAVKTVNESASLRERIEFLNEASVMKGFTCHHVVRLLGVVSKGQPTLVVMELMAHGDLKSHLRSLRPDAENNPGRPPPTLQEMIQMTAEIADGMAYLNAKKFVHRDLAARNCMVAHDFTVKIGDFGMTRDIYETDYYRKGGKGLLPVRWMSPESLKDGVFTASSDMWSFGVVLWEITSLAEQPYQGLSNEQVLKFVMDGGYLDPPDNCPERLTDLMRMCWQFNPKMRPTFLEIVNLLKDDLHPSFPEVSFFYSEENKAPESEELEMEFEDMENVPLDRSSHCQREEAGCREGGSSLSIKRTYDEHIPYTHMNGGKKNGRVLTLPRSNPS
Sequence of Mu-type opioid receptor (P35372 whole entry): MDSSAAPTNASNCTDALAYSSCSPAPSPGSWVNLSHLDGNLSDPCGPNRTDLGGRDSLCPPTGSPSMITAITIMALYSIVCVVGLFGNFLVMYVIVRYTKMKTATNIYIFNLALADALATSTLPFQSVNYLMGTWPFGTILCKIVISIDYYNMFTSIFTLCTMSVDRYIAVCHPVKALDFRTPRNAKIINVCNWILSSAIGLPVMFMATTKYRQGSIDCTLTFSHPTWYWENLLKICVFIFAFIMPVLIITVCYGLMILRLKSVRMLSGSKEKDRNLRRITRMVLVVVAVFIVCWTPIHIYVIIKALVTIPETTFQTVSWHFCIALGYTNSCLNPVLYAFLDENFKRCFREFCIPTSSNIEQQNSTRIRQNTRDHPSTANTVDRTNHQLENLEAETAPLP

CCCOc1ccccc1-c1nc2nn[nH]c2c(=O)[nH]1 [ZAPRINAST]
Not Active: IC50 [1] | IC50 [2] | IC50 [3] | IC50 [4] | Ki [4] | IC50 [5] | IC50 [6] | IC50 [7] | Ki [7] | IC50 [8] | Ki [8]

C=CCC1(C(C)CCC)C(=O)NC(=O)NC1=O (centres undefined) [SECOBARBITAL]
Not Active: IC50 [1] | IC50 [2] | IC50 [3] | IC50 [4] | Ki [4] | IC50 [5] | IC50 [6] | IC50 [7] | Ki [7] | IC50 [8] | Ki [8]

CC(=O)[C@@]1(O)CC[C@H]2[C@@H]3C[C@H](C)C4=CC(=O)CC[C@]4(C)[C@H]3CC[C@@]21C
Not Active: IC50 [1] | IC50 [2] | IC50 [3] | IC50 [4] | Ki [4] | IC50 [5] | IC50 [6] | IC50 [7] | Ki [7] | IC50 [8] | Ki [8]

N#CC(C#N)=Cc1ccc(O)c(O)c1 [TYRPHOSTIN 23]
Not Active: IC50 [1] | IC50 [2] | IC50 [3] | IC50 [4] | Ki [4] | IC50 [5] | IC50 [6] | IC50 [7] | Ki [7] | IC50 [8] | Ki [8]

— ChEMBL document CHEMBL1909046, “DrugMatrix in vitro pharmacology data”
